US20230077362A1 (CORTEVA AGRISCIENCE LLC, priority 2019, published 2023)
Read-outs that look alike come from different tables or passages of the source.

Assays:
Format in all cases: in vivo
[1] = system: Yellow Fever Mosquito "YFM" (Aedes aegypti), about 1 day-old larvae; assay: Bioassay on yellow fever mosquito (YFM), 96-well plate larval assay; settings: Table ABC, species YFM; mortality scored after 3 days; C = not tested, D = no activity noticed
Method: Example C: Bioassays on Yellow Fever Mosquito “YFM” (Aedes aegypti)
Certain molecules disclosed in this document were tested against YFM using procedures described in the following paragraph. In the reporting of the results, the “YFM Rating Table” was used (See Table Section).
Master plates containing 400 μg of a molecule dissolved in 100 μL of dimethyl sulfoxide (DMSO) (equivalent to a 4000 ppm solution) are used. A master plate of assembled molecules contains 15 μL per well. To this plate, 135 μL of a 90:10 water:acetone mixture is added to each well. A robot (Biomek® NXP Laboratory Automation Workstation) is programmed to dispense 15 μL aspirations from the master plate into an empty 96-well shallow plate (“daughter” plate). There are 6 reps (“daughter” plates) created per master. The created daughter plates are then immediately infested with YFM larvae.
The day before plates are to be treated, mosquito eggs are placed in Millipore water containing liver powder to begin hatching (4 g. into 400 mL). After the daughter plates are created using the robot, they are infested with 220 μL of the liver powder/larval mosquito mixture (about 1 day-old larvae). After plates are infested with mosquito larvae, a non-evaporative lid is used to cover the plate to reduce drying. Plates are held at room temperature for 3 days prior to grading. After 3 days, each well is observed and scored based on mortality.

[2] = system: Beet Armyworm (Spodoptera exigua) ("BAW"), second instar larvae; assay: Bioassay on beet armyworm (BAW), 128-well diet tray assay; settings: Spodoptera exigua
How it was run: (§1)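 Covered trays were held at 25° C. under a 14:10 light-dark cycle for five to seven days. Percent mortality was then scored in each well, and activity across eight wells was averaged.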

[3] = system: Cabbage Looper (Trichoplusia ni) ("CL"), second instar larvae; assay: Bioassay on cabbage looper (CL), 128-well diet tray assay; settings: Trichoplusia ni
How it was run: as §1

[4] = system: Green Peach Aphid ("GPA") (Myzus persicae), wingless adult and nymph stages; assay: Bioassay on green peach aphid (GPA), foliar spray on infested cabbage seedlings; settings: Myzus persicae, foliar, 72 h
How it was run: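 Cabbage seedlings with 2-3 true leaves, infested one day earlier with 20-50 wingless adult and nymph GPA, sprayed to runoff on both leaf sides; solvent check held 20% acetone/methanol (1:1). Live aphids counted after three days at about 25° C; corrected % control = 100*(X−Y)/X versus solvent check.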

[5] = read-out: BAW (Biological Results, rating)
[6] = read-out: CL (Biological Results, rating)
[7] = read-out: GPA (Biological Results, rating)

| Structure (SMILES) | YFM rating [1] | pest or weed control at 50 µg/cm2 [2, 5] | pest or weed control at 50 µg/cm2 [3, 6] | pest or weed control at 200 µg/mL [4, 7] | pest or weed control at 50 µg/cm2 ([2]; read-out: BAW rating) | pest or weed control at 50 µg/cm2 ([3]; read-out: CL rating) | pest or weed control at 200 µg/mL ([4]; read-out: GPA rating) |
| --- | --- | --- | --- | --- | --- | --- | --- |
| O=C(/N=C1\SCC(=O)N1c1cc(C(F)(F)F)ccc1COCc1ccccc1)Nc1ccc(-c2ncn(-c3ccc(OC(F)(F)F)cc3)n2)cc1F [Compound J741, (Z)-1-(3-(2-((Benzyloxy)methyl)-5-(trifluoromethyl)phenyl)-4-oxothiazolidin-2-ylidene)-3-(2-fluoro-4-(1-(4-(trifluoromethoxy)phenyl)-1H-1,2,4-triazol-3-yl)phenyl)urea] | A (80-100) |  |  |  |  |  |  |
| Cc1ccc(COCc2cc(C(F)(F)F)cc(C(F)(F)F)c2)c(N2C(=O)CS/C2=N\C(=O)Nc2ccc(-c3ncn(-c4ccc(C(F)(F)F)cc4)n3)cc2F)c1 [Compound J748, (Z)-1-(3-(2-(((3,5-Bis(trifluoromethyl)benzyl)oxy)methyl)-5-methylphenyl)-4-oxothiazolidin-2-ylidene)-3-(2-fluoro-4-(1-(4-(trifluoromethyl)phenyl)-1H-1,2,4-triazol-3-yl)phenyl)urea] | A (80-100) |  |  |  |  |  |  |
| Cc1cc(-c2ncn(-c3cccc(C(F)(F)F)c3)n2)ccc1NC(=O)/N=C1\SCC(=O)N1c1cc(N(C)C)ccc1C(C)C [Compound J133, (Z)-1-(3-(5-(Dimethylamino)-2-isopropylphenyl)-4-oxothiazolidin-2-ylidene)-3-(2-methyl-4-(1-(3-(trifluoromethyl)phenyl)-1H-1,2,4-triazol-3-yl)phenyl)urea] |  | 50 to 100% | 50 to 100% | 0 to 80% |  |  |  |
| CCOCc1ccc(C)cc1N1C(=O)CS/C1=N\C(=O)Nc1ccc(-c2cn(-c3ccc(S(=O)(=O)C(F)(F)F)cc3)cn2)cc1F [Compound J646, (Z)-1-(3-(2-(Ethoxymethyl)-5-methylphenyl)-4-oxothiazolidin-2-ylidene)-3-(2-fluoro-4-(1-(4-((trifluoromethyl)sulfonyl)phenyl)-1H-imidazol-4-yl)phenyl)urea] |  |  |  |  | 50 to 100% | 50 to 100% | 0 to 80% |
| CCN(C(C)=O)c1ccc(C(C)C)c(N2C(=O)CS/C2=N\C(=O)Nc2ccc(-c3ncn(-c4ccc(OC(F)(F)F)cc4)n3)cc2F)c1 [Compound J189, (Z)-N-Ethyl-N-(3-(2-(((2-fluoro-4-(1-(4-(trifluoromethoxy)phenyl)-1H-1,2,4-triazol-3-yl)phenyl)carbamoyl)imino)-4-oxothiazolidin-3-yl)-4-isopropylphenyl)acetamide] |  | 50 to 100% | 50 to 100% | 0 to 80% |  |  |  |
| Cc1ccc(OCCC(F)(F)F)c(N2C(=O)CS/C2=N\C(=O)Nc2ccc(-c3ncn(-c4ccc(OC(F)(F)F)cc4)n3)cc2F)c1 [Compound J35, (Z)-1-(2-Fluoro-4-(1-(4-(trifluoromethoxy)phenyl)-1H-1,2,4-triazol-3-yl)phenyl)-3-(3-(5-methyl-2-(3,3,3-trifluoropropoxy)phenyl)-4-oxothiazolidin-2-ylidene)urea] |  | 50 to 100% | 50 to 100% | 0 to 80% |  |  |  |
| COC(c1ccc(C)cc1N1C(=O)CS/C1=N\C(=O)Nc1ccc(-c2cn(-c3ccc(S(=O)(=O)C(F)(F)F)cc3)cn2)cc1F)C(F)(F)F (centres unmarked) [Compound J649, (Z)-1-(2-Fluoro-4-(1-(4-((trifluoromethyl)sulfonyl)phenyl)-1H-imidazol-4-yl)phenyl)-3-(3-(5-methyl-2-(2,2,2-trifluoro-1-methoxyethyl)phenyl)-4-oxothiazolidin-2-ylidene)urea] |  |  |  |  | 50 to 100% | 50 to 100% | 0 to 80% |
| Cc1ccc(C(C)C)c(N2C(=O)CS/C2=N\C(=O)Nc2ccc(-c3ncn(-c4ccc(OCC#N)cc4)n3)cc2F)c1 [Compound J344, (Z)-1-(4-(1-(4-(Cyanomethoxy)phenyl)-1H-1,2,4-triazol-3-yl)-2-fluorophenyl)-3-(3-(2-isopropyl-5-methylphenyl)-4-oxothiazolidin-2-ylidene)urea] |  | 50 to 100% | 50 to 100% | 0 to 80% |  |  |  |
| CC(C)c1ccc(N(C)C)cc1N1C(=O)CS/C1=N\C(=O)Nc1ccc(-c2ncn(-c3ccc(SC(F)(F)F)cc3)n2)cc1 [Compound J368, (Z)-1-(3-(5-(Dimethylamino)-2-isopropylphenyl)-4-oxothiazolidin-2-ylidene)-3-(4-(1-(4-((trifluoromethyl)thio)phenyl)-1H-1,2,4-triazol-3-yl)phenyl)urea] |  |  |  |  | 50 to 100% | 50 to 100% | 0 to 80% |
| CCc1cc(-c2ncn(-c3ccc(OC(F)(F)F)cc3)n2)ccc1NC(=O)/N=C1\SCC(=O)N1c1cc(OC)ccc1C(C)C [Compound J71, (Z)-1-(2-Ethyl-4-(1-(4-(trifluoromethoxy)phenyl)-1H-1,2,4-triazol-3-yl)phenyl)-3-(3-(2-isopropyl-5-methoxyphenyl)-4-oxothiazolidin-2-ylidene)urea] |  | 50 to 100% | 50 to 100% | 0 to 80% |  |  |  |
| Cc1ccc(OCC(F)(F)F)c(N2C(=O)CS/C2=N\C(=O)Nc2ccc(-c3ncn(-c4cccc(C(F)(F)F)c4)n3)cc2F)c1 [Compound J122, (Z)-1-(2-Fluoro-4-(1-(3-(trifluoromethyl)phenyl)-1H-1,2,4-triazol-3-yl)phenyl)-3-(3-(5-methyl-2-(2,2,2-trifluoroethoxy)phenyl)-4-oxothiazolidin-2-ylidene)urea] |  | 50 to 100% | 50 to 100% | 0 to 80% |  |  |  |
| Cc1ccc(COCC(F)F)c(N2C(=O)CS/C2=N\C(=O)Nc2ccc(-c3cn(-c4ccc(S(=O)(=O)C(F)(F)F)cc4)cn3)cc2F)c1 [Compound J648, (Z)-1-(3-(2-((2,2-Difluoroethoxy)methyl)-5-methylphenyl)-4-oxothiazolidin-2-ylidene)-3-(2-fluoro-4-(1-(4-((trifluoromethyl)sulfonyl)phenyl)-1H-imidazol-4-yl)phenyl)urea] |  |  |  |  | 50 to 100% | 50 to 100% | 0 to 80% |
| Cc1cc(-c2ncn(-c3ccc(S(=O)(=O)C(F)(F)F)cc3)n2)ccc1NC(=O)/N=C1\SCC(=O)N1c1cc(N(C)C)ccc1C(C)C [Compound J366, (Z)-1-(3-(5-(Dimethylamino)-2-isopropylphenyl)-4-oxothiazolidin-2-ylidene)-3-(2-methyl-4-(1-(4-((trifluoromethyl)sulfonyl)phenyl)-1H-1,2,4-triazol-3-yl)phenyl)urea] |  |  |  |  | 50 to 100% | 50 to 100% | 0 to 80% |
| CC(C)c1ccc(N(C)C)cc1N1C(=O)CS/C1=N\C(=O)Nc1ccc(-c2ncn(-c3cccc(C(F)(F)F)c3)n2)cc1F [Compound J153, (Z)-1-(3-(5-(Dimethylamino)-2-isopropylphenyl)-4-oxothiazolidin-2-ylidene)-3-(2-fluoro-4-(1-(3-(trifluoromethyl)phenyl)-1H-1,2,4-triazol-3-yl)phenyl)urea] |  | 50 to 100% | 50 to 100% | 0 to 80% |  |  |  |
| CCOc1ccc(N(C)C)cc1N1C(=O)CS/C1=N\C(=O)Nc1ccc(-c2ncn(-c3ccc(OC(F)(F)F)cc3)n2)cc1F [Compound J192, (Z)-1-(3-(5-(Dimethylamino)-2-ethoxyphenyl)-4-oxothiazolidin-2-ylidene)-3-(2-fluoro-4-(1-(4-(trifluoromethoxy)phenyl)-1H-1,2,4-triazol-3-yl)phenyl)urea] |  | 50 to 100% | 50 to 100% | 0 to 80% |  |  |  |
| Cc1ccc(OCCCC(F)(F)F)c(N2C(=O)CS/C2=N\C(=O)Nc2ccc(-c3ncn(-c4ccc(SC(F)(F)F)cc4)n3)cc2F)c1 [Compound J225, (Z)-1-(2-Fluoro-4-(1-(4-((trifluoromethyl)thio)phenyl)-1H-1,2,4-triazol-3-yl)phenyl)-3-(3-(5-methyl-2-(4,4,4-trifluorobutoxy)phenyl)-4-oxothiazolidin-2-ylidene)urea] |  | 50 to 100% | 50 to 100% | 0 to 80% |  |  |  |
| CCc1cc(-c2ncn(-c3ccc(OC(F)(F)F)cc3)n2)ccc1NC(=O)/N=C1\SCC(=O)N1c1cc(C)ccc1C(C)OC (centres unmarked) [Compound J74, (Z)-1-(2-Ethyl-4-(1-(4-(trifluoromethoxy)phenyl)-1H-1,2,4-triazol-3-yl)phenyl)-3-(3-(2-(1-methoxyethyl)-5-methylphenyl)-4-oxothiazolidin-2-ylidene)urea] |  | 50 to 100% | 50 to 100% | 0 to 80% |  |  |  |
